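The compound was tested at five concentrations on cells cultured in 96-well plates, with a 48-hour exposure period. Definition used: TGI = concentration required for complete inhibition of growth.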
Tests used:
Experiment in all cases: inhibition of tumour cell growth, NCI panel, 48 h
NCI/ADR-RES ovarian = test system: NCI/ADR-RES ovarian
HCC-2998 colon = test system: HCC-2998 colon
SR leukemia = test system: SR leukemia
CCRF-CEM leukemia = test system: CCRF-CEM leukemia
EKVX NSCLC = test system: EKVX NSCLC
CAKI-1 renal = test system: CAKI-1 renal
MDA-MB-435 = test system: MDA-MB-435
SN12C renal = test system: SN12C renal
HCT-116 colon = test system: HCT-116 colon
OVCAR-5 ovarian = test system: OVCAR-5 ovarian
RXF 393 renal = test system: RXF 393 renal
SK-MEL-28 melanoma = test system: SK-MEL-28 melanoma
UACC-62 melanoma = test system: UACC-62 melanoma
NCI-H522 lung = test system: NCI-H522 lung
MOLT-4 leukemia = test system: MOLT-4 leukemia
MALME-3M melanoma = test system: MALME-3M melanoma
OVCAR-4 ovarian = test system: OVCAR-4 ovarian
OVCAR-8 ovarian = test system: OVCAR-8 ovarian
IGROV1 ovarian = test system: IGROV1 ovarian
M14 melanoma = test system: M14 melanoma
BT-549 breast = test system: BT-549 breast
SK-MEL-2 melanoma = test system: SK-MEL-2 melanoma
MDA-N = test system: MDA-N
ACHN renal = test system: ACHN renal
MCF7 breast = test system: MCF7 breast
T-47D breast = test system: T-47D breast
PC-3 prostate = test system: PC-3 prostate
U251 CNS = test system: U251 CNS
RPMI-8226 leukemia = test system: RPMI-8226 leukemia
UO-31 renal = test system: UO-31 renal
SW-620 colon = test system: SW-620 colon
SK-MEL-5 melanoma = test system: SK-MEL-5 melanoma
NCI-H226 lung = test system: NCI-H226 lung
HOP-92 NSCLC = test system: HOP-92 NSCLC
SK-OV-3 ovarian = test system: SK-OV-3 ovarian
TK-10 renal = test system: TK-10 renal
A498 renal = test system: A498 renal
K-562 leukemia = test system: K-562 leukemia
UACC-257 melanoma = test system: UACC-257 melanoma
DU-145 prostate = test system: DU-145 prostate
786-0 renal = test system: 786-0 renal
HOP-62 NSCLC = test system: HOP-62 NSCLC
MDA-MB-231 breast = test system: MDA-MB-231 breast
A549 NSCLC = test system: A549 NSCLC
KM12 colon = test system: KM12 colon
COLO 205 colon = test system: COLO 205 colon
LOX IMVI melanoma = test system: LOX IMVI melanoma
SNB-19 CNS = test system: SNB-19 CNS
SF-295 CNS = test system: SF-295 CNS
OVCAR-3 ovarian = test system: OVCAR-3 ovarian
HCT-15 colon = test system: HCT-15 colon
HL-60(TB) leukemia = test system: HL-60(TB) leukemia
NCI-H23 lung = test system: NCI-H23 lung
HT29 colon = test system: HT29 colon
NCI-H460 lung = test system: NCI-H460 lung
SNB-75 CNS = test system: SNB-75 CNS
SF-539 CNS = test system: SF-539 CNS
HS 578T breast = test system: HS 578T breast
SF-268 CNS = test system: SF-268 CNS

Measured: TGI

COc1ccc(NC(C)=O)cc1N1C(=O)/C(=C\c2cccc(Oc3ccccc3)c2)SC1c1ccccc1 (stereo not given)
67.2 µM: CCRF-CEM leukemia
23.8 µM: HCT-116 colon
54.8 µM: NCI/ADR-RES ovarian
61.9 µM: RPMI-8226 leukemia
82.6 µM: MOLT-4 leukemia
64.6 µM: SN12C renal
71.3 µM: OVCAR-3 ovarian
37.9 µM: HL-60(TB) leukemia
39.9 µM: COLO 205 colon
29.4 µM: SR leukemia
81.9 µM: MDA-N
45.5 µM: HT29 colon
79.6 µM: HOP-92 NSCLC
71.1 µM: SW-620 colon
64.8 µM: OVCAR-8 ovarian
55.5 µM: LOX IMVI melanoma
not listed: SF-539 CNS | HS 578T breast | SF-268 CNS
> 100 µM: all other assays above

CN1C(=O)C(O)C[C@@H]1c1ccc(F)cc1 (stereo not given in full)
not listed: NCI/ADR-RES ovarian | NCI-H522 lung | MALME-3M melanoma | OVCAR-8 ovarian | SW-620 colon | A498 renal | K-562 leukemia | KM12 colon | NCI-H460 lung | SNB-75 CNS | HS 578T breast | SF-268 CNS
> 100 µM: all other assays above

N#CC(CC(=O)O)=C(c1ccccc1)c1ccccc1
not listed: CCRF-CEM leukemia | RXF 393 renal | MOLT-4 leukemia | T-47D breast | DU-145 prostate | HL-60(TB) leukemia
> 100 µM: all other assays above

CN(C)c1ccc(/C=N/NC(=O)c2cnc3ccccc3c2)cc1
50.6 µM: SNB-75 CNS
54.9 µM: RXF 393 renal
63.5 µM: HS 578T breast
34.5 µM: MDA-MB-435
53.3 µM: SF-268 CNS
not listed: SR leukemia | CCRF-CEM leukemia | MOLT-4 leukemia | T-47D breast | HT29 colon
> 100 µM: all other assays above

Source: PubChem BioAssay (NCI)
